In PubChem BioAssay (NCI) one finds GI50 and TGI data, which are given here for twelve molecules.

Each structure is given as a SMILES string. “And” between values parts separate entries of the source, which are not always exact repeats. Identical values can stand only once.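 All cell lines were grown in 96-well plates and treated with compound for 48 hours. Here, GI50 denotes the concentration required for 50% inhibition of growth. TGI denotes the concentration required for complete inhibition of growth.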 Bounds are passed on as bounds.

Test systems include HOP-92 NSCLC; IGROV1 ovarian; KM12 colon; NCI-H460 lung; RPMI-8226 leukemia; SF-539 CNS; SN12C renal; SR leukemia; T-47D breast; UO-31 renal.
Common to all, as to experiment: NCI-60 cell line screen, 48 h

With `O=c1c2ccccc2nc(-c2ccccc2Cl)n1-c1nnc(C(F)(F)F)s1`, the GI50 was 0.514 µM in the assay with HOP-92 NSCLC; 4.17 µM in the assay on IGROV1 ovarian; 3.68 µM in the assay with KM12 colon; 3.38 µM with NCI-H460 lung; 2.26 µM in the assay on RPMI-8226 leukemia; 3.21 µM in the assay on SF-539 CNS. For the same molecule, the GI50 in the assay on SN12C renal is 3.01 µM; in the assay on SR leukemia, 3.73 µM; in the assay with T-47D breast, 3.76 µM; in the assay on UO-31 renal, 2.75 µM. Besides, the TGI with HOP-92 NSCLC is 3.43 µM; in the assay on IGROV1 ovarian, over 100 µM; in the assay on KM12 colon it was 14.1 µM; with NCI-H460 lung, 23.3 µM; in the assay with RPMI-8226 leukemia it was 8.13 µM; in the assay with SF-539 CNS it was 13 µM. The TGI in the assay on SN12C renal is over 100 µM; in the assay with SR leukemia, 24.6 µM; in the assay on T-47D breast, over 100 µM; in the assay with UO-31 renal, 11.6 µM.

With `Nc1cc(C(F)(F)F)c(-c2cc(N3CCOCC3)nc(N3CCOCC3)n2)cn1`, the GI50 in the assay on HOP-92 NSCLC was 0.162 µM and 0.0723 µM; in the assay with IGROV1 ovarian, 0.227 µM and 0.28 µM; in the assay with KM12 colon, 1.39 µM and 1.22 µM; in the assay with NCI-H460 lung it was 0.646 µM and 0.451 µM; in the assay with RPMI-8226 leukemia, 1.31 µM and 1.47 µM; in the assay on SF-539 CNS, 0.976 µM and 1.39 µM. For the same molecule, the GI50 is 1.27 µM and 1.61 µM in the assay on SN12C renal; 0.397 µM and 0.41 µM in the assay with SR leukemia; 0.145 µM and 0.273 µM in the assay on T-47D breast; 0.309 µM and 0.527 µM with UO-31 renal. Further, the TGI was 1.17 µM and 0.617 µM in the assay on HOP-92 NSCLC; > 10 µM and 8.55 µM in the assay on KM12 colon; 7.27 µM and 12.4 µM with NCI-H460 lung; over 23.1 µM with RPMI-8226 leukemia; 3.42 µM and 4.35 µM in the assay with SF-539 CNS; over 100 µM in the assay on SN12C renal. Also, the TGI is over 30 µM in the assay on SR leukemia; 0.77 µM and 1.31 µM in the assay with T-47D breast.

As for `Cc1ccc(Cl)cc1NC(=O)c1cc2ccccc2cc1O`, the GI50 in the assay on HOP-92 NSCLC is 0.222 µM; in the assay with IGROV1 ovarian it was 0.189 µM; in the assay with KM12 colon, 0.396 µM; with NCI-H460 lung, 0.376 µM; in the assay on RPMI-8226 leukemia it was 0.106 µM; in the assay with SF-539 CNS, 0.356 µM. For the same molecule, the GI50 in the assay with SN12C renal was 0.265 µM; in the assay on SR leukemia, 0.217 µM; with T-47D breast it was 1.14 µM; in the assay with UO-31 renal it was 0.201 µM. Further, the TGI with HOP-92 NSCLC amounted to 0.724 µM; in the assay with IGROV1 ovarian, 3.95 µM; in the assay with KM12 colon it was 1.89 µM; in the assay on NCI-H460 lung, 2.28 µM; with RPMI-8226 leukemia it was 0.354 µM; in the assay on SF-539 CNS it was 1.82 µM. In addition, the TGI in the assay with SN12C renal is 1.92 µM; in the assay on SR leukemia, 1.21 µM; with T-47D breast, 5.06 µM; with UO-31 renal, 1.47 µM.

As for `O=CNc1ccc(S(=O)(=O)c2ccc(NC=O)cc2)cc1`, the TGI with HOP-92 NSCLC, with IGROV1 ovarian, in the assay on KM12 colon, in the assay with NCI-H460 lung, in the assay on RPMI-8226 leukemia and in the assay with SF-539 CNS was over 100 µM throughout. For the same molecule, the TGI in the assay on SN12C renal, in the assay with SR leukemia, in the assay with T-47D breast and in the assay with UO-31 renal was over 100 µM in each case.

For `O=C(COc1ccc(OCC(=O)N2C(=O)CN(c3ccccc3)C2=S)cc1)N1C(=O)CN(c2ccccc2)C1=S`, the TGI in the assay with HOP-92 NSCLC, in the assay with IGROV1 ovarian, with KM12 colon, in the assay on NCI-H460 lung, in the assay on RPMI-8226 leukemia and in the assay on SF-539 CNS was over 100 µM each time. The TGI in the assay with SN12C renal, in the assay with SR leukemia, in the assay on T-47D breast and in the assay on UO-31 renal was over 100 µM in each case. Besides, the GI50 in the assay on IGROV1 ovarian is 29.3 µM; with KM12 colon, over 25 µM; in the assay with NCI-H460 lung it was over 25 µM; with RPMI-8226 leukemia, over 25 µM; with SN12C renal, over 25 µM; in the assay with SR leukemia it was over 100 µM. Also, the GI50 with T-47D breast and in the assay on UO-31 renal was over 25 µM each time.

For the molecule `COc1ccc(-c2[nH]nc(N)c2-c2cc(OC)c3c(c2)OCO3)cc1`, the GI50 was 3.54 µM in the assay on HOP-92 NSCLC; 8.51 µM in the assay with IGROV1 ovarian; 2.35 µM in the assay on KM12 colon; 3.38 µM in the assay with NCI-H460 lung; 3.8 µM in the assay with RPMI-8226 leukemia; 12.8 µM in the assay with SF-539 CNS. Besides, the GI50 with SN12C renal was 5.01 µM; in the assay on SR leukemia it was 1.97 µM; with T-47D breast, 6.52 µM; in the assay with UO-31 renal it was 4.35 µM. Also, the TGI with HOP-92 NSCLC was 46.8 µM; in the assay with IGROV1 ovarian, 70.5 µM; in the assay on KM12 colon, 31.6 µM; in the assay on NCI-H460 lung, over 100 µM; in the assay on RPMI-8226 leukemia it was 52.3 µM; in the assay on SF-539 CNS, 48.2 µM. Further, the TGI in the assay on SN12C renal is over 100 µM; in the assay on SR leukemia it was 18.1 µM; with T-47D breast it was over 100 µM; in the assay with UO-31 renal, 69.7 µM.

`O=C(Nc1cccc(-n2cc(-c3ccncc3)c(-c3ccc(O)c(Cl)c3)n2)c1)c1cc(C(F)(F)F)cc(C(F)(F)F)c1`: the GI50 in the assay on HOP-92 NSCLC is 0.822 µM; with IGROV1 ovarian, 11.2 µM; with KM12 colon it was 2.05 µM; in the assay on NCI-H460 lung it was 1.9 µM; with RPMI-8226 leukemia, 3.31 µM; in the assay on SF-539 CNS it was 4.78 µM. Further, the GI50 in the assay with SN12C renal is 7.04 µM; in the assay with SR leukemia, 1.43 µM; with T-47D breast, 2.28 µM; in the assay with UO-31 renal, 4.15 µM. The TGI with HOP-92 NSCLC is 4.15 µM; in the assay on IGROV1 ovarian, over 50 µM; with KM12 colon, 12.5 µM; in the assay on NCI-H460 lung, over 50 µM; in the assay on RPMI-8226 leukemia, 33.1 µM; in the assay on SF-539 CNS it was 38.9 µM. In addition, the TGI in the assay with SN12C renal is over 50 µM; with SR leukemia, 5.68 µM; with T-47D breast it was 30.8 µM; with UO-31 renal, over 50 µM.

On to `COc1ccc2nc3cc([N+](=O)[O-])ccc3c(NNc3ccccc3)c2c1`, for which the GI50 in the assay with HOP-92 NSCLC was 11.5 µM; in the assay with IGROV1 ovarian, 15.4 µM; with KM12 colon, 6.25 µM; with RPMI-8226 leukemia, 4.8 µM; in the assay on SF-539 CNS it was 11.7 µM; in the assay with SN12C renal, 18.9 µM. Besides, the GI50 was 10.1 µM with T-47D breast and 13.1 µM in the assay with UO-31 renal. Moreover, the TGI in the assay with HOP-92 NSCLC was 28 µM and 47.4 µM; in the assay with IGROV1 ovarian it was 68.6 µM and 27.9 µM; with KM12 colon, 19.6 µM and 32.4 µM; with NCI-H460 lung it was 25.2 µM and 42.3 µM; with RPMI-8226 leukemia, 46.7 µM and > 73.3 µM; in the assay with SF-539 CNS it was 26.4 µM and 75 µM. In addition, the TGI in the assay with SN12C renal is 71.1 µM and > 74.9 µM; in the assay with SR leukemia, 61.8 µM; in the assay on T-47D breast it was 35.7 µM and > 100 µM; with UO-31 renal it was 34.3 µM and > 100 µM.

Turning to `C[C@@H](NC(=O)c1ncnc(N)c1Cl)c1ncc(C(=O)Nc2cc(C(F)(F)F)c(Cl)cn2)s1`, the GI50 was 1.46 µM in the assay with HOP-92 NSCLC; 10.8 µM in the assay with IGROV1 ovarian; 21.3 µM with KM12 colon; 20.4 µM in the assay on NCI-H460 lung; 15.2 µM with RPMI-8226 leukemia; 20.3 µM in the assay with SF-539 CNS. Moreover, the GI50 in the assay with SN12C renal is 19.9 µM; with SR leukemia, 15.3 µM; with T-47D breast, 24.2 µM; in the assay with UO-31 renal, 8.98 µM. Further, the TGI with HOP-92 NSCLC was 9.44 µM; in the assay on IGROV1 ovarian, 39.6 µM; in the assay with KM12 colon, over 84.6 µM; in the assay on NCI-H460 lung it was 79.9 µM; in the assay on RPMI-8226 leukemia, 49 µM; in the assay with SF-539 CNS it was over 78.4 µM. The TGI was over 93.7 µM in the assay on SN12C renal, 64.5 µM in the assay on SR leukemia, over 83.8 µM in the assay on T-47D breast and 44.4 µM in the assay on UO-31 renal.

For `NC1=NC(=O)/C(=C/c2ccc3ncccc3c2)S1`, the GI50 with HOP-92 NSCLC, in the assay with IGROV1 ovarian, in the assay with KM12 colon, in the assay with NCI-H460 lung, in the assay on RPMI-8226 leukemia and in the assay with SF-539 CNS was over 25 µM throughout. The GI50 with SN12C renal is over 25 µM; in the assay with SR leukemia, 7.11 µM; in the assay with T-47D breast it was over 15.6 µM; with UO-31 renal it was over 25 µM. Also, the TGI in the assay with HOP-92 NSCLC, with IGROV1 ovarian, with KM12 colon, in the assay on NCI-H460 lung, in the assay with RPMI-8226 leukemia and with SF-539 CNS was over 25 µM in each case. Moreover, the TGI with SN12C renal, in the assay on SR leukemia, with T-47D breast and in the assay with UO-31 renal was over 25 µM each time.

Take `Cc1ccc(NC(=O)Nc2c(Cl)cccc2Cl)cn1`: the GI50 in the assay on HOP-92 NSCLC is 16.8 µM; with IGROV1 ovarian, 8.14 µM; in the assay with KM12 colon, 4.37 µM; in the assay with NCI-H460 lung, 4.91 µM; with RPMI-8226 leukemia it was 9.16 µM; in the assay with SF-539 CNS, 5.24 µM. Besides, the GI50 was 55.4 µM in the assay on SN12C renal, 3.89 µM in the assay with SR leukemia, 13.9 µM with T-47D breast and 47 µM in the assay on UO-31 renal. The TGI is over 100 µM with HOP-92 NSCLC; over 100 µM in the assay on IGROV1 ovarian; over 100 µM with KM12 colon; 36.1 µM with NCI-H460 lung; over 100 µM in the assay with RPMI-8226 leukemia; over 100 µM with SF-539 CNS. Besides, the TGI in the assay on SN12C renal is over 100 µM; in the assay with SR leukemia, 22.7 µM; in the assay on T-47D breast it was over 100 µM; in the assay on UO-31 renal, over 100 µM.

Take `CN(C)Cc1ccc(C(C)(C)C)cc1-c1cc(C(C)(C)C)ccc1CN(C)C`: the TGI with HOP-92 NSCLC, in the assay on IGROV1 ovarian, in the assay on KM12 colon, with NCI-H460 lung, with RPMI-8226 leukemia and with SF-539 CNS was over 100 µM in each case. In addition, the TGI in the assay on SN12C renal, in the assay with SR leukemia, with T-47D breast and with UO-31 renal was over 100 µM in each case.
